In ChEMBL document CHEMBL3091380, “Dibenzoyl and isoflavonoid glycosides from Sophora flavescens: inhibition of the cytotoxic effect of D-galactosamine on human hepatocyte HL-7702” (2013):

Assays:
[1] = Hepatoprotective activity in human HL-7702 cells assessed as inhibition of D-galactosamine-induced toxicity at 1x10'-5 M by MTT assay relative to control; type: functional; conditions: L02
L02 = assay: Hepatoprotective activity against D-galactosamine-induced toxicity in human HL-7702 cells assessed as survival rate at 1x10'-5 M by MTT assay relative to normal cell; type: functional; conditions: read-out: Survival

SMILES	inhibition at 10 µM [1]	viability at 10 µM (L02)
COc1ccc(C(=O)C(=O)c2ccc(O[C@@H]3O[C@H](CO[C@@H]4OC[C@@H](O)[C@H](O)[C@H]4O)[C@@H](O)[C@H](O)[C@H]3O)cc2O)cc1O	27.1%	61.3%
COc1ccc(C(=O)C(=O)c2ccc(O[C@@H]3O[C@H](CO[C@@H]4OC[C@](O)(CO)[C@H]4O)[C@@H](O)[C@H](O)[C@H]3O)cc2O)cc1O	52.4%	74.7%
COc1ccc(-c2coc3cc(O[C@@H]4O[C@H](CO[C@@H]5OC[C@](O)(CO)[C@H]5O)[C@@H](O)[C@H](O)[C@H]4O)ccc3c2=O)cc1O	36.6%	66.3%
COc1cc(-c2coc3cc(O[C@@H]4O[C@H](CO[C@@H]5OC[C@@H](O)[C@H](O)[C@H]5O)[C@@H](O)[C@H](O)[C@H]4O)ccc3c2=O)ccc1O	45.8%	71.2%
COc1ccc(-c2coc3cc(O[C@@H]4O[C@H](CO[C@@H]5OC[C@@H](O)[C@H](O)[C@H]5O)[C@@H](O)[C@H](O)[C@H]4O)ccc3c2=O)cc1O	46.3%	71.5%
COC(=O)c1cc(OC)c2c(c1-c1c(CO)cc(OC)c3c1OCO3)OCO2 [BICYCLOL]	29.4%	62.5%
